Measured values reported in patent publication US11014914B2, “Opioid receptor (MOR) agonist salt, fumarate salt crystal form I thereof and preparation method thereof” (Jiangsu Hengrui Medicine Co., Ltd., priority 2017, dated 2021).

Experiments:
[1] = Solubility comparison of the fumarate salt and free base in water; assay type: physicochemical; settings: thermodynamic from solid; pure water, stirred overnight, filtered, HPLC
Description: Test sample: compound represented by formula (II) (free base) prepared by comparative experiment 2 and product prepared by embodiment 1 (compound represented by formula (I));
The tested sample was weighted and added into pure water, then stirred by a magnetic stirrer overnight, and then filtered and diluted to a certain volume for sample injection;
HPLC chromatographic conditions: acetonitrile-0.1% aqueous trifluoroacetic acid (50:50) used as mobile phase, detection wavelength 264 nm, injection volume 10 μL, flow rate 1.0 mL/min.

[2] = Stability investigation of crystal form I (XRPD, long-term placement); assay type: physicochemical; settings: long-term 25° C., 60% RH, dark, sealed, sampling time 5 days
Description: The crystal form I sample prepared by embodiment 2 was placed in the dark, sealed and placed flat, and the stability of the sample was investigated long-term (25° C., 60% RH), sampling time was 5 days, and XRPD was used to detect whether the crystal form changed.

| Compound | solubility [1] [mg/mL] | XRPD peak pattern (crystal form change) [2] |
| --- | --- | --- |
| CCO[C@H]1CC[C@H](NCC[C@@]2(c3ccccn3)CCOC3(CCCC3)C2)c2ccccc21 [Free base, (1S,4S)-4-ethoxy-N-(2-((R)-9-(pyridin-2-yl)-6-oxaspiro[4.5]deca-9-yl)ethyl)-1,2,3,4-tetrahydronaphthalen-1-amine] | 0.0022 | – |
| CCO[C@H]1CC[C@H](NCC[C@@]2(c3ccccn3)CCOC3(CCCC3)C2)c2ccccc21.O=C(O)/C=C/C(=O)O [Compound represented by formula (I), (1S,4S)-4-ethoxy-N-(2-((R)-9-(pyridin-2-yl)-6-oxaspiro[4.5]deca-9-yl)ethyl)-1,2,3,4-tetrahydronaphthalen-1-amine fumarate salt] | 31.3 | remained unchanged |
